The text below walks through data of patent US8642632B2, “Selective androgen receptor modulators” (Radius Health, Inc., priority 2010, dated 2014).

One assay concerns the target T1, androgen receptor (Rattus norvegicus, UniProt P15207).
T1 construct: purchased Invitrogen, Madison, Wis
T1 sequence (P15207 651-902 limits assumed): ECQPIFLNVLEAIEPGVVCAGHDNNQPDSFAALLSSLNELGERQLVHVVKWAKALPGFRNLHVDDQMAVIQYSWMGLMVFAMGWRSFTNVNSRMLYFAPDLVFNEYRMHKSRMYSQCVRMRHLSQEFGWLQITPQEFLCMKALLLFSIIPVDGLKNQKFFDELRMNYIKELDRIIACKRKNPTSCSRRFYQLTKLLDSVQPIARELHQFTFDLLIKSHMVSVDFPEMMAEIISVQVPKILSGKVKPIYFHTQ
As to the kind of experiment: androgen receptor binding assay (fluorescence polarization, Invitrogen AR-Fluormone). The procedure: The assay was performed as specified by the manufacturer (Invitrogen, Madison, Wis.). Briefly, 1 μl of 10 mM compound was added to 500 μl of AR screening buffer in a 1.5 ml eppendorf tube to make a 2×10^−5M stock. 10-fold serial dilutions of the test compounds were prepared ranging in concentration from 10^−5M to 10^−12M. Each dilution was added in triplicate to a black 384-microtiter plate. The test compounds will be diluted 2-fold in the final reaction. 2×AR-Fluormone™ complex was prepared with 2 nM Flourmone AL Green™ and 30 nM AR. 25 μl of 2× complex was aliquoted to each reaction well, such that the final reaction volume was 50 μl per well. Plate was sealed with a foil cover and incubated in the dark at room temperature for 4 h. Polarization values for each well were measured. The polarization values were plotted against the concentration of the test compound. The concentration of the test compound that results in half-maximum shift equals the IC50 of the test compound. As a control, a competition curve for R1881 (methyltrienolone) was performed for each assay. Curve Fitting was performed using GraphPad Prism® software from GraphPad™ Software Inc. Binding data are reported as a single determination if the experiment was run once only and as the average of experiments if the binding experiment was performed two or more times with that compound.
The binding data shown in table 1 (below) is from the result of a single or multiple determinations based on the same compound. Where multiple data points have been taken, the value reported is the average of the multiple determinations.
A general note: In fluorescence polarisation assays a small probe gives low polarisation when free and higher when bound to something large.

A further assay has as its system castrated rat. Description: In vivo rat model of androgen and anabolic activity - rat Herschberger assay. Conditions: 3 mg/kg orally, once daily for 4 days, compared with Sham and testosterone propionate (TP) controls. The source says:
Organ and muscle weight is on Y-axis and the numbers refer to weight in milligrams. *ρ<0.05 compared to vehicle. ^ρ<0.05 compared to TP and sham.
The following is a typical procedure of the in vivo evaluation of the selective androgens of this invention. In particular, this assay looks primarily at the ability of the selective androgens of this invention to increase muscle size in an immature, castrated rat. In addition, androgenic effects are looked at primarily by weighing the prostate and seminal vesicles. Selective compounds will show a greater increase in the levator ani relative to the prostate and seminal vesicles when compared to testosterone treated, castrated animals or to intact animals that have not been treated. Immature Sprague Dawley male rats were obtained Charles River Laboratories (Stoneridge, N.Y.). All animals were maintained in a temperature and humidity controlled room with a 12 hr light: 12 hr dark cycle, with ad lib access to food (TD 291615, Teklad, Madison, Wis.) and water. Rats were anesthetized and orchidectomized (GDX) or sham surgery (SHAM) was performed. […] The prostate, seminal vesicle and levator ani and bulba cavernous (LABC) tissues were removed, weighed and recorded. Body weights were recorded for each animal at baseline and at sacrifice.

The IC50 is the midpoint of a concentration-inhibition curve. The low end stands for inhibition by little substance, the high end for a need for much substance. Consider `Cc1c(N[C@@H](c2nnc(-c3ccc(C#N)cc3)o2)C(C)(C)O)ccc(C#N)c1C(F)(F)F` [Example 3, (R)-4-(1-(5-(4-cyanophenyl)-1,3,4-oxadiazol-2-yl)-2-hydroxy-2-methylpropylamino)-3-methyl-2-(trifluoromethyl)benzonitrile], for which the IC50 on androgen receptor is 30 nM.
`Cc1c(N[C@@H](c2nnc(-c3ccc(F)cc3)o2)C(C)(C)O)ccc(C#N)c1Cl` [Example 5, (R)-2-chloro-4-(1-(5-(4-fluorophenyl)-1,3,4-oxadiazol-2-yl)-2-hydroxy-2-methylpropylamino)-3-methylbenzonitrile] came in with an IC50 at androgen receptor of 6 nM. Further, the “levator ani muscle (LABC) weight” value in the assay on castrated rat was “significantly above the non-castrated control (Sham) and testosterone propionate-treated (TP) controls”.
In the case of `CC(C)(O)[C@@H](Nc1ccc(C#N)c(C(F)(F)F)c1)c1nnc(-c2ccc(F)cc2)o1` [Example 1, (R)-4-(1-(5-(4-fluorophenyl)-1,3,4-oxadiazol-2-yl)-2-hydroxy-2-methylpropylamino)-2-(trifluoromethyl)benzonitrile], the IC50 at androgen receptor is over 1000 nM.
On the same count and under the same terms, the result for `Cc1c(N[C@@H](c2nnc(-c3ccc(C#N)cc3)o2)[C@H](O)C(F)(F)F)ccc(C#N)c1Cl` [Example 7, 2-chloro-4-((1R,2S)-1-(5-(4-cyanophenyl)-1,3,4-oxadiazol-2-yl)-3,3,3-trifluoro-2-hydroxypropylamino)-3-methylbenzonitrile] reads 290 nM; that for `Cc1c(N[C@@H](c2nnc(-c3ccc(F)cc3)o2)C(C)(C)O)ccc(C#N)c1C(F)(F)F` [Example 2, (R)-4-(1-(5-(4-fluorophenyl)-1,3,4-oxadiazol-2-yl)-2-hydroxy-2-methylpropylamino)-3-methyl-2-(trifluoromethyl)benzonitrile], 40 nM; that for `Cc1c(N[C@@H](c2nnc(-c3ccc(C#N)cc3)o2)C(C)(C)O)ccc(C#N)c1Cl` [Example 6, (R)-2-chloro-4-(1-(5-(4-cyanophenyl)-1,3,4-oxadiazol-2-yl)-2-hydroxy-2-methylpropylamino)-3-methylbenzonitrile], 4 nM.
On the same count and under the same terms, the result for `CCCc1c(N[C@@H](c2nnc(-c3ccc(C#N)cc3)o2)[C@H](C)O)ccc(C#N)c1Cl` [Example 4, 2-Chloro-4-((1R,2S)-1-(5-(4-cyanophenyl)-1,3,4-oxadiazol-2-yl)-2-hydroxypropylamino)-3-propylbenzonitrile] reads 0.3 nM.
